Data on 16 molecules can be found in patent publication US20090137572A1, “2-substituted-4-heteroaryl-pyrimidines useful for the treatment of proliferative disorders” (priority 2004, published 2009).

Structures are written as SMILES.

One series addresses CDK2-cycline E (Homo sapiens, UniProt P24941). The experiment in a line: Kinase assay (radioactive phosphate incorporation), CDK2-cyclin E. Format: biochemical. Particulars: read-out: Kinase Inhibition pIC50 CDK2-cycline E (converted). The gist of the method:
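Recombinant active enzyme (2-4 μg) with suitable polypeptide substrate in 25 mM β-glycerophosphate, 20 mM MOPS, 5 mM EGTA, 1 mM DTT, 1 mM […], pH 7.4. Started with 15 mM MgCl2/100 μM ATP plus [γ-32P]-ATP, incubated at 30° C; 32P incorporation captured on filter plates and counted by scintillation.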

A further series deals with CDK7/cyclin H (Homo sapiens, UniProt P50613). Kind of series: CDK 7 assay (CTD peptide substrate). Format: biochemical. The note with it: read-out: Kinase Inhibition pIC50 CDK7-cyclin H (converted). As for the experimental part: (§1) Kinase assays. The compounds of the invention above were investigated for their ability to inhibit the enzymatic activity of various protein kinases (Table 2). This was achieved by measurement of incorporation of radioactive phosphate from ATP into appropriate polypeptide substrates. Recombinant protein kinases and kinase complexes were produced or obtained commercially. Assays were performed using 96-well plates and appropriate assay buffers (typically 25 mM β-glycerophosphate, 20 mM MOPS, 5 mM EGTA, 1 mM DTT, 1 mM […], pH 7.4), into which were added 2-4 μg of active enzyme with appropriate substrates. The reactions were initiated by addition of Mg/ATP mix (15 mM MgCl2+100 μM ATP with 30-50 kBq per well of [γ-^32P]-ATP) and mixtures incubated as required at 30° C. Reactions were stopped on ice, followed by filtration through p81 filterplates or GF/C filterplates (Whatman Polyfiltronics, Kent, UK). After washing 3 times with 75 mM aq orthophosphoric acid, plates were dried, scintillant added and incorporated radioactivity measured in a scintillation counter (TopCount, Packard Instruments, Pangbourne, Berks, UK). Compounds for kinase assay were made up as 10 mM stocks in DMSO and diluted into 10% DMSO in assay buffer.
Chain of CDK7/cyclin H (P50613 whole entry): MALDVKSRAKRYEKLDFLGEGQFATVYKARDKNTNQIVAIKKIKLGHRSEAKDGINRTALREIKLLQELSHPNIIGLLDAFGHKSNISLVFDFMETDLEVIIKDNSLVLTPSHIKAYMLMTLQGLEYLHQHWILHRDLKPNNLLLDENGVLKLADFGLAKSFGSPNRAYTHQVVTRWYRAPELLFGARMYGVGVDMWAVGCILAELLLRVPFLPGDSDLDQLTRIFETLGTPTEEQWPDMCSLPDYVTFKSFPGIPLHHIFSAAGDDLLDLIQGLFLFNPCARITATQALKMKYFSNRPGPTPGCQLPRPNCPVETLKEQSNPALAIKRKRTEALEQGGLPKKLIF
Chain of CDK7/cyclin H (P51946 whole entry partner): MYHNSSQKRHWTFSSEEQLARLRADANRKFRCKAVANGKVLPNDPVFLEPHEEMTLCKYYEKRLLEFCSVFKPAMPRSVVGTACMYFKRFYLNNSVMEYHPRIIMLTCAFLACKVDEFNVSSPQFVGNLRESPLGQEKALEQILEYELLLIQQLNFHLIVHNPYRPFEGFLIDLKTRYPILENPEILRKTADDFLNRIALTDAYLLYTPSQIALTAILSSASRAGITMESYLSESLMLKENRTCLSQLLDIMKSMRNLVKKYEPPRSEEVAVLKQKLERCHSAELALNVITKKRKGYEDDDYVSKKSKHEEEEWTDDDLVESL
(§2) CDK 7 and 9 assays. CTD peptide substrate (biotinyl-Abx-(Tyr-Ser-Pro-Thr-Ser-Pro-Ser)4-NH2; 1-2 mg/mL) and recombinant human CDK7/cyclin H, CDK9/cyclin T1, or CDK9/cyclin K (0.5-2 μg) were incubated for 45 min at 30° C. in the presence of varying amounts of test compound in 20 mM MOPS pH 7.2, 25 mM β-glycerophosphate, 5 mM EGTA, 1 mM DTT, 1 mM sodium vanadate, 15 mM MgCl2, and 100 μM ATP (containing a trace amount of ^32PγATP) in a total volume of 25 μL in a 96-well microtiter plate. The reaction was stopped by placing the plate on ice for 2 min. Avidin (50 μg) was added to each well, and the plate was incubated at room temp for 30 min. The samples were transferred to a 96-well P81 filter plate, and washed (4×200 μL per well) with 75 mM phosphoric acid. Microscint 40 scintillation liquid (50 μL) was added to each well, and the amount of ^32P incorporation for each sample was measured using a Packard Topcount microplate scintillation counter.

Series [1] has as its target T1, Flt3 (FMS-like tyrosine kinase-3) (Homo sapiens, UniProt P36888).
T1 sequence (P36888 27-993): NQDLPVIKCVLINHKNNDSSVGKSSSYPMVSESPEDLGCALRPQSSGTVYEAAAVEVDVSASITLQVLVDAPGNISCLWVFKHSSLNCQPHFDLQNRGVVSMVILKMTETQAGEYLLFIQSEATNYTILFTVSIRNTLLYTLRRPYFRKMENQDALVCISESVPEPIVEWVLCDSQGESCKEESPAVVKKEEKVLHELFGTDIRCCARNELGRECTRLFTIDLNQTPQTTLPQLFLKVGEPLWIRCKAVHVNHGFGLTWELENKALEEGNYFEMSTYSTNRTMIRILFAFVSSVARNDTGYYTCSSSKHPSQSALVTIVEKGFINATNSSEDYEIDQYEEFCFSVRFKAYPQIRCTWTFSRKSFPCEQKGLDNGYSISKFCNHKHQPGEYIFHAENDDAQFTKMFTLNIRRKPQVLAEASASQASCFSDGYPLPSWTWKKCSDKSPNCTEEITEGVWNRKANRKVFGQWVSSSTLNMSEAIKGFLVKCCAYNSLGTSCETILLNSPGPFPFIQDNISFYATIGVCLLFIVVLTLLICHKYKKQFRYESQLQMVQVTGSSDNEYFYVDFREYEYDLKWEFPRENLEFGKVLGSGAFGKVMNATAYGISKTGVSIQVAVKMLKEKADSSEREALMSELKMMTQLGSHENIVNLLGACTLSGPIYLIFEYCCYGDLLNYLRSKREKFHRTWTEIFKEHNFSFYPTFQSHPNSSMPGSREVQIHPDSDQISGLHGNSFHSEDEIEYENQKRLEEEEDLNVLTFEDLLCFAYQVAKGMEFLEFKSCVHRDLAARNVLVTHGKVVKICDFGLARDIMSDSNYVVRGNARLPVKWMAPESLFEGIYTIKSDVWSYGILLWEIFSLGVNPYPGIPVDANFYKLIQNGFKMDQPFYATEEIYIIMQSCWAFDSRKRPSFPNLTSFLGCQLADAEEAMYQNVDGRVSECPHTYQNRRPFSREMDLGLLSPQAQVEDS
The experiment in a line: Kinase assay (radioactive phosphate incorporation), Flt3. The note with it: pIC50 is -log(IC50, M), read-out: Kinase Inhibition pIC50 Flt3 (converted). It is filed as biochemical. As for the experimental part:
as §1

A further series concerns the target CDK9/cyclin T1 (Homo sapiens, UniProt P50750). The experiment in a line: CDK 9 assay (CTD peptide substrate). The note with it: read-out: Kinase Inhibition pIC50 CDK9-cyclin T1 (converted). Format: biochemical. As for the experimental part:
as §1, §2

A further series addresses T2, Aurora A kinase (Homo sapiens, UniProt O14965).
T2 construct: purchased
T2 sequence (O14965 1-403): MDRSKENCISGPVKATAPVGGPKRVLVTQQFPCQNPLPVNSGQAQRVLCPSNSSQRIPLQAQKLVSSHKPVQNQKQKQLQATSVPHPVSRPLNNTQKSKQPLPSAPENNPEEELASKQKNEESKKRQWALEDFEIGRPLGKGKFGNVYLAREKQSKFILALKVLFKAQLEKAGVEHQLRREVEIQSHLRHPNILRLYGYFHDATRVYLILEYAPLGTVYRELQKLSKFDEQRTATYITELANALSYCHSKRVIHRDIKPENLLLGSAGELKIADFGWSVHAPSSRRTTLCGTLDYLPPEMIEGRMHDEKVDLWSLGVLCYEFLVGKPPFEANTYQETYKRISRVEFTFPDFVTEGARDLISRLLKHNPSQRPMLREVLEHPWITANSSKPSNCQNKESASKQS
Kind of series: Aurora-A (human) kinase assay (Kemptide substrate). The note with it: pIC50 is -log(IC50, M); 15 μM ATP; read-out: Kinase Inhibition pIC50 Aurora A kinase (converted). It is filed as biochemical. The gist of the method:
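Radiometric filter-binding assay: commercial aurora-A kinase (5-10 ng) with 200 μM Kemptide in MOPS/EDTA pH 7.0, started with 10 mM Mg acetate and 15 μM ATP plus [γ-33P]-ATP. Incubated 40 min at room temperature, stopped with phosphoric acid, incorporated 33P counted by scintillation.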

Chain of CDK9/cyclin T1 (P50750 whole entry): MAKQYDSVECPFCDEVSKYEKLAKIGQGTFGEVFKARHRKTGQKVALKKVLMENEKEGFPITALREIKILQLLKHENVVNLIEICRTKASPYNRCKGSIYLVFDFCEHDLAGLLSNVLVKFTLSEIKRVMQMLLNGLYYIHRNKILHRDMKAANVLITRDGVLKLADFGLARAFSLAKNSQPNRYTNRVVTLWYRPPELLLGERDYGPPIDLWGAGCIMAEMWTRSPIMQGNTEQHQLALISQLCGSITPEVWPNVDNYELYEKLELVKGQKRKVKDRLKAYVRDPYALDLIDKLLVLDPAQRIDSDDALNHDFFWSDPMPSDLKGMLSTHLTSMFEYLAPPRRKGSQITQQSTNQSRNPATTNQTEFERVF
Chain of CDK9/cyclin T1 (O60563 whole entry partner): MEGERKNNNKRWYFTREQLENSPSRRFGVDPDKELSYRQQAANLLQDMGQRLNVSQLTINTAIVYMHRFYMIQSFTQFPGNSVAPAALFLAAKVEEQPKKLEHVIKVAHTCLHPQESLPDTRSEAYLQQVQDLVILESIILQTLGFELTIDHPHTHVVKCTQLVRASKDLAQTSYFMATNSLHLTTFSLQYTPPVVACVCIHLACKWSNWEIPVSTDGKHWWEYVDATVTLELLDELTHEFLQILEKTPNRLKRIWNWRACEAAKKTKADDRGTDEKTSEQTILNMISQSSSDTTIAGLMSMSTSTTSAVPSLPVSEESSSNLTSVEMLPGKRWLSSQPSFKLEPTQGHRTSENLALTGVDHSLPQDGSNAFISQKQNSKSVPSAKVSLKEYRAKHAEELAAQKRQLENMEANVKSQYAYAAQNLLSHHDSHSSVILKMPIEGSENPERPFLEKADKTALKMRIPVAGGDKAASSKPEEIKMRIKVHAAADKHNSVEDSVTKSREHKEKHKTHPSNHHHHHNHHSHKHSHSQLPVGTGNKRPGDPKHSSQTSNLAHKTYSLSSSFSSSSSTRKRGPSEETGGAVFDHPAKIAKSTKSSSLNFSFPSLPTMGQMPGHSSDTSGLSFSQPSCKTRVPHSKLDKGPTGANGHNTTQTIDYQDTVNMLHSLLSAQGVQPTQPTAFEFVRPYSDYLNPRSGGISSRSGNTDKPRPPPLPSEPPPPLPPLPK

On to `COCCOC(=O)Cc1cccc(Nc2nccc(-c3sc(N)nc3C)n2)c1` [Compound 1, {3-[4-(2-Amino-4-methyl-thiazol-5-yl)-pyrimidin-2-ylamino]-phenyl}-acetic acid 2-methoxy-ethyl ester], for which the IC50 is 1000 nM on CDK2-cycline E, 3160 nM at CDK7/cyclin H and 126 nM in series [1].
As for `COc1cc(Nc2nccc(-c3sc(C)nc3C)n2)cc(OC)c1OC` [Compound 25, [4-(2,4-Dimethyl-thiazol-5-yl)-pyrimidin-2-yl]-(3,4,5-trimethoxy-phenyl)-amine], the IC50 was 3160 nM on CDK7/cyclin H, 2000 nM on CDK9/cyclin T1, 63.1 nM in series [1] and 20 nM on Aurora A kinase.
As usually defined, the melting point is the temperature of the solid-liquid transition. Take `CCc1cc(-c2nc(C)c(-c3ccnc(Nc4ccc(S(=O)(=O)NCCO)cc4)n3)s2)ccn1` [Compound 102, 4-{4-[2-(2-Ethyl-pyridin-4-yl)-4-methyl-thiazol-5-yl]-pyrimidin-2-ylamino}-N-(2-hydroxy-ethyl)-benzenesulfonamide]: the melting point is 233 to 234 °C. Also, the IC50 on Aurora A kinase is 63.1 nM.
Turning to `Cc1nc(NCc2ccccc2)sc1-c1ccnc(Nc2ccc(N3CCOCC3)cc2)n1` [Compound 117, [4-(2-Benzylamino-4-methyl-thiazol-5-yl)-pyrimidin-2-yl]-(4-morpholin-4-yl-phenyl)-amine], the melting point lay within 180 to 183 °C.
Still for that read-out and setting: for `Cc1nc(-c2cccnc2)sc1-c1ccnc(Nc2ccc(N3CCOCC3)c(Cl)c2)n1` [Compound 127, (3-Chloro-4-morpholin-4-yl-phenyl)-[4-(4-methyl-2-pyridin-3-yl-thiazol-5-yl)-pyrimidin-2-yl]-amine] the value was 230 to 231 °C; for `CCNc1nc(C)c(-c2ccnc(Nc3cc(Cl)c(N4CCOCC4)c(Cl)c3)n2)s1` [Compound 133, (3,5-Dichloro-4-morpholin-4-yl-phenyl)-[4-(2-ethylamino-4-methyl-thiazol-5-yl)-pyrimidin-2-yl]-amine], over 300 °C.
`Cc1nc(-c2nc(C)c(-c3ccnc(Nc4cc(Cl)c(N5CCOCC5)c(Cl)c4)n3)s2)cs1` [Compound 137, (3,5-Dichloro-4-morpholin-4-yl-phenyl)-[4-(4,2′-dimethyl-[2,4′]bithiazolyl-5-yl)-pyrimidin-2-yl]-amine] yielded a melting point of over 300 °C.
`COc1cc(Nc2nccc(-c3sc(-c4cccnc4)nc3C)n2)cc(OC)c1` [Compound 155, (3,5-Dimethoxy-phenyl)-[4-(4-methyl-2-pyridin-3-yl-thiazol-5-yl)-pyrimidin-2-yl]-amine]: the melting point is 229 to 230 °C.
In the case of `Cc1nc(N(C)c2cccnc2)sc1-c1ccnc(Nc2ccc(N3CCOCC3)cc2)n1` [Compound 162, {4-[4-Methyl-2-(methyl-pyridin-3-yl-amino)-thiazol-5-yl]-pyrimidin-2-yl}-(4-morpholin-4-yl-phenyl)-amine], the IC50 is 3160 nM on CDK2-cycline E, 3160 nM on CDK9/cyclin T1, 63.1 nM in series [1] and 126 nM on Aurora A kinase.
As to `Cc1nc(NCCc2ccccc2)sc1-c1ccnc(Nc2ccc(N3CCN(Cc4ccccc4)CC3)cc2)n1` [Compound 166, [4-(4-Benzyl-piperazin-1-yl)-phenyl]-[4-(4-methyl-2-phenethylamino-thiazol-5-yl)-pyrimidin-2-yl]-amine], the melting point was 191 to 192 °C.
Molecule `Cc1nc(Nc2ccccc2)sc1-c1ccnc(Nc2ccc(N3CCOCC3)cc2)n1` [Compound 167, [4-(4-Methyl-2-phenylamino-thiazol-5-yl)-pyrimidin-2-yl]-(4-morpholin-4-yl-phenyl)-amine] registered a melting point of 290 to 291 °C.
Consider `COc1cc(Nc2nccc(-c3sc(N)nc3C)n2)cc(OC)c1OC` [Compound 168, [4-(2-Amino-4-methyl-thiazol-5-yl)-pyrimidin-2-yl]-(3,4,5-trimethoxy-phenyl)-amine], for which the IC50 is 398 nM on CDK2-cycline E; 1260 nM at CDK7/cyclin H; 316 nM on CDK9/cyclin T1; 5.01 nM in series [1]; 31.6 nM on Aurora A kinase.
As to `CCNc1nc(C)c(-c2ccnc(Nc3ccc(N4CC(C)OC(C)C4)cc3)n2)s1` (stereo not shown) [Compound 169, [4-(2,6-Dimethyl-morpholin-4-yl)-phenyl]-[4-(2-ethylamino-4-methyl-thiazol-5-yl)-pyrimidin-2-yl]-amine], the IC50 on CDK2-cycline E is 1580 nM; on CDK9/cyclin T1 it was 3160 nM; in series [1], 39.8 nM; on Aurora A kinase, 50.1 nM.
Take `COc1cc(Nc2nccc(-c3sc(Nc4ccccc4)nc3C)n2)cc(OC)c1` [Compound 171, (3,5-Dimethoxy-phenyl)-[4-(4-methyl-2-phenylamino-thiazol-5-yl)-pyrimidin-2-yl]-amine]: the melting point is 191 to 194 °C.
`Cc1nc(C)c(-c2ccnc(Nc3ccc(CN4CCOCC4)cc3)n2)s1` [Compound 174, [4-(2,4-Dimethyl-thiazol-5-yl)-pyrimidin-2-yl]-(4-morpholin-4-ylmethyl-phenyl)-amine]: the IC50 on CDK2-cycline E was 1260 nM; on CDK7/cyclin H it was 251 nM; on CDK9/cyclin T1, 1000 nM; in series [1], 158 nM; at Aurora A kinase, 100 nM.
Consider `COc1cc(Nc2nccc(-c3sc(C)nc3C)n2)cc(OC)c1` [Compound 175, (3,5-Dimethoxy-phenyl)-[4-(2,4-dimethyl-thiazol-5-yl)-pyrimidin-2-yl]-amine], for which the IC50 is 1260 nM at CDK2-cycline E; 5010 nM at CDK7/cyclin H; 1580 nM at CDK9/cyclin T1; 39.8 nM in series [1]; 79.4 nM at Aurora A kinase.
